Experimental data reported in patent publication US6541463B1, “Inhibitors of type 5 and type 3 17β-hydroxysteroid dehydrogenase and methods for their use” (Endorecherche, Inc., priority 1998, dated 2003).

Columns and labels:
ZR-75-1 cells [1] = assay: Estrogenic activity: stimulation of proliferation of ZR-75-1 cells; format: cell-based, human
Procedure: […] The manner in which the stimulation is determined is described in “Other Tests; C-Estrogenic/Antiestrogenic activity” Lower numbers are desirable. ND means that a determination was not done.
(§1) Estrogenic/antiestrogenic activity of some preferred compounds has been measured using the […] human breast cancer cell line as described in more detail below.
(§2) All media and medium supplments were purchased from Sigma. Cells were subcultured weekly by treatment with a pancreatic solution containing EDTA (0.2 g/L). The cell cultures used for the experiments herein describied were between passages 89 and 94.
(§3) Cells in their logarithmic growth phase were harvested, briefly centrifuged, and resuspended in RPMI 1640. Cells were then plated in triplicate in LIMBRO 24-well plastic culture plates (2 cm^2/well). Since plating density influences the effect of hormones on ZR-75-1 cell growth, cells were plated at a density of 1×10^4 cells/well. […] Control cultures received the ethanol vehicle only. Cells were then allowed to grow at 37° C. for 10 days with medium changes (of identical composition) every 2 days.
(§4) After E2 and/or antiestrogen treatment, cells were harvested by addition of 0.5 ml of a pancreatin solution (Sigma) for 5-10 min at 37° C. before addition of 0.5 mnl of RPMI 1640 containing 5% dextran coated […] bovine serum in order to block enzymatic action. Cell number (0.10 ml aliquot) was determined by measurement of DNA content as previously described (Simard et al., Endocrinology 126: 3223-3231,1990).

[2] = target: T1, human type 2 17β-hydroxysteroid dehydrogenase (Homo sapiens, UniProt P37059); assay: Enzymatic assay for type 2 17β-HSD; format: biochemical; settings: for IC50: read-out: Inhibition Type 2 17β-HSD Activity IC50; for inhibition: read-out: Inhibition Type 2 17β-HSD Activity [% Inh. at 3 · 10^−8M]
T1 construct: expressed in transfected cells; host or cells: 293 cells, transient transfection; microsomal fraction (100 000×g pellet)
T1 sequence (P37059 1-387): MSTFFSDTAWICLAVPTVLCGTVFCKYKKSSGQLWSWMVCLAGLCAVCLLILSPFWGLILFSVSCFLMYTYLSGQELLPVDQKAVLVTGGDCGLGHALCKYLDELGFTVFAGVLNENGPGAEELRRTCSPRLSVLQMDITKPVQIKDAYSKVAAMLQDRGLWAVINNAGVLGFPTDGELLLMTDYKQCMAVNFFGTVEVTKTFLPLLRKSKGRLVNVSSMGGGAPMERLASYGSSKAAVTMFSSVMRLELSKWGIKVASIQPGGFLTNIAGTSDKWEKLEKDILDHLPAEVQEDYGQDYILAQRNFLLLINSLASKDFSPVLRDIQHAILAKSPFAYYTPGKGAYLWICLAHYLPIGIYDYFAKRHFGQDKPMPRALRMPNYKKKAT
Procedure: The manner in which IC50 was determined is described in “Efficacy of Preferred Inhibitors: VI. Enzymatic assay for types 1, 2, and 3 17β-HSD and types 1 and 3 3α-HSD”. […] numbers of IC50 are desirable. Blank means that a determination was not done. […]
Enzyme sources. 293 cells transiently transfected with expression vectors encoding types 1, 2 and 3 17β-HSD (Luu-The et al., J. Steroid Biochem. Molec. Biol., 55: 581-587, 1995), types 1 and 2 5α-reductase (Luu-The et al., J. Invest. Dermatol., 102: 221-226, 1994) and types 1 and 3 3α-HSD (Dufort et al. Biochem. Biophys. Res. Commun. 228: 474-479, 1996), using the calcium phosphate procedure (Kingston et al., In: Current Protocols in Molecular Biology. Edited by E. M. Ausbel, R. Brent, R. E. Kingston, D. D. Moore, J. G. Seidman, J. A. Smith, K. Struhl. John Wiley & Sons, New York, pp. 9.1.1-9.1.9, 1991; Luu-The et al., J. Invest. Dermatol., 102: 221-226, 1994). For assays using cell subfractions, cells were sonicated in 50 mM sodium phosphate buffer (pH 7.4), containing 20% glycerol and 1 mM EDTA and centrifuged at 10 000×g for 30 min before centrifugation for 100 000×g for 1 h to separate the mitochondrial and microsomal fractions, respectively. The cytosol fractions (100 000×g supernatant) was used to determine type 1 activity while the microsomal fraction (pellet at 100 000×g) was used for measurement of types 2 and 3 17β-HSD activities.
Incubation. The enzymatic reaction was carried out at 37° C. in 1 ml of 50 mM sodium phosphate buffer, pH 7.4, containing 20% glycerol, 1 mM EDTA, and 2 mM cofactors (NADPH or AND^+) for 1 h in the presence of 0.1 μM ^14C-labeled substrate: estrone and 4-dione for types 1 and […] 17β-HSD, respectively, testosterone for type 2 17β-HSD as well as types 1 and 2 5α-reductases, DHT for types 1 and 3 3α-HSD activities, and the indicated concentration of inhibitor.
Extraction of metabolites, migration on TLC and quantification were as described above for the assay of type 5 17β-HSD.

ZR-75-1 cells [3] = assay: Antiestrogenic activity: inhibition of E2-induced proliferation of ZR-75-1 cells; format: cell-based, human; design: ZR-75-1 Activity, E2 / ZR-75-1 Activity E2 E^−6: unit not given here
Procedure: The manner in which the inhibition is determined is described in “Other Tests; C-Estrogenic/Antiestrogenic Activity”. Lower numbers are desirable. ND means that a determination was not done.
as §1, §2, §3, §4

[4] = Table 4′, E2-induced proliferation, 3E^−8
[5] = Table 4′, bracketed values, 3 · 10^−8M

Row | Structure (SMILES) | ZR-75-1 Activity, Basal E^−6 (ZR-75-1 cells [1]; Table 4′) | ZR-75-1 Activity, Basal E^−8 (ZR-75-1 cells [1]; Table 4′) [%] | ZR-75-1 Activity, E2 3E^−8 (ZR-75-1 cells [3]; [4]) [%] | inhibition [2, 5] [%] | also measured
1 | CC1(C)CCC2(CCC3C4CCc5cc(OS(C)(=O)=O)ccc5C4CCC32C)OC1=O (stereo not shown) [EM-1365-CS] | 0% | −17 | −17 | – | IC50 ([2]; Table 4′): > 10 µM
2 | CC1CCC2(CCC3C4CCc5cc(O)c([N+](=O)[O-])cc5C4CCC32C)OC1=O [EM-1126, 2-Nitro-1,3,5(10)-estratrien-3-ol-17(R)-spiro-2′-(5′-methyl-6′-oxo)tetrahydropyran] | −89% | 0 | 0 | – | Inhibition Type 2 17β-HSD Activity [% Inh. at 3 · 10^−8M] [2, 5]: [59] %
3 | COCCOc1cc2c(cc1C(=O)OC)C1CC[C@@]3(C)C(CC[C@@]34CCC(C)(C)C(=O)O4)C1CC2 (stereo partly drawn) [EM-1402-CS, 2-Carbomethoxy-3-(2″-methoxyethyloxy)-1,3,5(10)-estratrien 17(R)-spiro-2′-(5′,5′-dimethyl-6′-oxo)tetrahydropyran] | −10% | 0 | 0 | – | IC50 ([2]; Table 4′): > 10 µM; inhibition at 1 µM (ZR-75-1 cells [3]; Homo sapiens, ZR-75-1, 10^−6 M inhibitor, negative number = stimulation reduced, read-out: percentage of inhibition of E2-induced proliferation of ZR-75-1 cells): 61%
4 | COCCOc1ccc2c(c1)CCC1C2CCC2(C)C1CCC21CCC(C)(C)C(=O)O1 [EM-1368-CS, 3-Methoxyethoxy-1,3,5(10)-estratrien-17(R)-spiro-2′-(5′,5′-dimethyl-6′-oxo)-tetrahydropyran] | +15% | 0 | 0 | 73 | –
5 | COCCOc1cc2c(cc1C(N)=O)C1CC[C@@]3(C)C(CC[C@@]34CCC(C)(C)C(=O)O4)C1CC2 (stereo partly drawn) [EM-1424, 2-Carbamoyl-3-(2″-methoxyethyloxy)-1,3,5(10)-estratrien 17(R)-spiro-2′-(5′,5′-dimethyl-6′-oxo)tetrahydropyran] | 0% | 0 | −11 | – | IC50 ([2]; Table 4′): > 10 µM
6 | C[C@]12CCC3c4ccc(O)cc4CCC3C1CC[C@@]21CCCC(=O)O1 (stereo partly drawn) [EM-919, 1,3,5(10)-estratrien-3-ol-17(R)-spiro-2′(6′-oxo)tetrahydropyran] | −20% | 0 | −18 | 86 | –
7 | CC1CCC2(CCC3C4CCc5ccccc5C4CCC32C)OC1=O (stereo not shown) [EM-1025] | 201% | 20 | 0 | 64 | –
8 | C=CCC1CCC2(CCC3C4CCc5cc(O)ccc5C4CCC32C)OC1=O [PB-132-152, 3-Hydroxy-1,3,5(10)-estratrien-17(R)-2′-(5′-allyl-6′-oxo)tetrahydropyran] | 90% | 39 | −11 | 50 | –
9 | COCCOc1cc2c(cc1Cl)C1CCC3(C)C(CCC34CCC(C)(C)C(=O)O4)C1CC2 (stereo not shown) [EM-1371-CS] | +137% | 0 | 0 | – | IC50 ([2]; Table 4′): > 10 µM
10 | CCC[C@@H]1CC2C3C=CC4=CC(=O)CC[C@]4(C)C3CC[C@]2(C)C1=O (stereo partly shown) [EM-1097] | – | – | – | – | ZR-75-1 Activity, Basal E^−6 (ZR-75-1 cells [1]): 10; ZR-75-1 Activity, Basal E^−8 (ZR-75-1 cells [1]): −8; inhibition at 3 µM ([2]; 3 · 10^−6 M, value in square brackets, read-out: Inhibition Type 2 17B-HSD Activity [% Inh. at 3 · 10^−6 M]): 53%; ZR-75-1 Activity, E2 3E^−8 (ZR-75-1 cells [3]; with E2, 3E^−8): 0; ZR-75-1 Activity E2 E^−6 (ZR-75-1 cells [3]; with E2, E^−6): 0
11 | CC1CC(=O)OC2(CCC3C4CCc5cc(O)ccc5C4CCC32C)C1 [PB-132-142, 3-Hydroxy-1,3,5(10)-estratrien-17(R)-spiro-2′-(4′-methyl-6′-oxo)tetrahydropyran] | 91% | 38 | 0 | 69 | –
12 | CC1(C)CC[C@@]2(CCC3C4CCc5cc(C(N)=O)ccc5C4CCC32C)OC1=O (stereo partly shown) [EM-1404] | 0% | 0 | 0 | – | IC50 ([2]; Table 4′): > 10 µM
13 | COC(=O)CCCC(=O)O[C@]1(C(C)=O)CC[C@H]2[C@@H]3C=C(C)C4=CC(=O)CC[C@]4(C)[C@H]3CC[C@@]21C [EM-1007, 6-Methyl-4,6-pregnadien-17α-ol-3,20-dione 4′-Carbomethoxybutyrate] | – | – | – | – | ZR-75-1 Activity, Basal (ZR-75-1 cells [1]; E^−6, in %): 0; ZR-75-1 Activity, Basal (ZR-75-1 cells [1]; E^−8, in %): −8; ZR-75-1 Activity, E2 (ZR-75-1 cells [3]; E2): −52; ZR-75-1 Activity, E2 (ZR-75-1 cells [3]; E2, E^−8): −41
14 | CCS(=O)(=O)Oc1ccc2c(c1)CCC1C2CCC2(C)C1CCC21CCC(C)(C)C(=O)O1 (stereo not shown) [EM-1364-CS] | +36% | 0 | −12 | 73 | –
15 | CC1(C)CCC2(CCC3C4CCc5cc(O)c([N+](=O)[O-])cc5C4CCC32C)OC1=O (stereo not shown) [EM-1125-CS] | 34% | 10 | 0 | – | –
16 | CC12CCC3c4ccc(O)cc4CCC3C1CCC21CC=CC(=O)O1 [PB-132-140, 3-hydroxy-1,3,5(10)-estratrien-17(R)-spiro-2′-(4′,5′-dihydro-6′-oxo)pyran] | 71% | 15 | 0 | – | –
17 | CC1(C)CCC2(CCC3C4CCc5ccccc5C4CCC32C)OC1=O (stereo not shown) [CS-224] | 128% | 16 | 13 | – | –
